This is an account of results in patent US20250270513A1, “METHOD FOR PRODUCING CULTURED TISSUE, AND PREPARATION FOR EXTERNAL APPLICATION” (National University Corporation Ehime University, priority 2019, published 2025).

Data set [1] deals with fibroblasts of the dermal tissue layer of three-dimensional cultured skin. Description: Cell proportion per cell cycle by flow cytometry (FCM), PI staining (Test Example 1). Type of data set: cell-based, human. On the procedure:
• (5) Of the obtained three-dimensional cultured skin, a dermal tissue layer composed of fibroblasts was separated and DNA-stained with propidium iodide (PI). Next, the proportion of fibroblasts for each cell cycle was analyzed by FCM using Cycle TEST PLUS DNA Reagent Kit (manufactured by BD).

The test system of data set [2] is human normal skin keratinocytes. Description: Culture of keratinocytes alone without collagen gel containing fibroblasts (Test Example 1). The class given is cell-based. Particulars: 100 mg/mL trehalose in medium, no fibroblast collagen gel. As for the experimental part:
• (2) Next, the collagen gel (layered dermal cell structure) containing NHDF was pre-cultured for 5 days using a DMEM medium containing 50 μg/ml ascorbic acid, 10 v/v % FCS, and 1 v/v % ABAM. Next, human normal skin keratinocytes suspended in MCDB medium were seeded on the collagen gel surface so as to be 1.28×10^5 cells/cm^2, and a medium obtained by mixing equal amounts of MCDB Type-II medium (Growth Medium 2 in JP-B2-3066624) and EGM was added to an external liquid of the cell culture insert and the inside of the insert, followed by culturing at 37° C. for 2 days.
On the other hand, when 100 mg/mL trehalose was added to the medium of (2) without collagen gel containing fibroblasts and culture was performed with keratinocytes alone, formation of epithelial tissue layer was not observed as in the absence of trehalose.

Data set [3] has as its system NHDF (normal human skin fibroblasts). Description: Monolayer culture of fibroblasts, optical microscope observation (Test Example 3-1). Type of data set: cell-based. As to conditions: 24 hours monolayer.
Data set [4] has as its system ERK1/2 (Thr202/Tyr204 phosphorylated). Description: Western blotting of phosphorylated ERK1/2 in fibroblasts (Test Example 3-1). The class given is cell-based, human. Particulars: 0, 10, 100 mg/mL trehalose in medium, 24 hours. On the procedure:
(§1) The cells were further DNA-stained with PI and subjected to FCM, and the proportion of each cell cycle was examined.
(§2) (3) Furthermore, proteins were extracted from the fibroblasts obtained in (1) using RIPA buffer (1% protein inhibitor (manufactured by SIGMA)+Phosphatase Inhibitor cocktail (manufactured by SIGMA)). Then, 10 μg of protein per sample was separated by SDS-PAGE by a conventional method, transferred to a PVDF membrane, and then subjected to Western blotting. Phosphorylated ERK1/2 and phosphorylated AKT were detected by ECL Prime Western Blotting Detection Reagent (manufactured by GE Healthcare), using Phospho-p44/p42 MAPK (Erk1/2) (Thr202/Tyr204) (D13.14.4E) XP Rabbit mAb (#4300, Cell Signaling) and Phospho-Akt (Ser473) antibody (#9271, manufactured by Cell Signaling Technology) as a primary antibody, and an anti-rabbit IgG antibody and an anti-mouse IgG antibody manufactured by PROMEGA were used as secondary antibodies, and visualized by Image Quant LAS4010 (manufactured by GE Healthcare).
(A western blot detects proteins with antibodies after separation by electrophoresis.)

The subject of data set [5] is AKT (Ser473 phosphorylated). Description: Western blotting of phosphorylated AKT in fibroblasts (Test Example 3-1). Type of data set: cell-based, human. As to conditions: 0, 10, 100 mg/mL trehalose in medium, 24 hours. As for the experimental part:
as §1, §2

In the next data set the test system is β-actin. The data set can be described thus: Western blotting of β-actin in fibroblasts (Test Example 3-1). Type of data set: cell-based, human. Particulars: 0, 10, 100 mg/mL trehalose in medium, 24 hours. As for the experimental part:
as §1, §2

The test system of data set [6] is EREG, ARG2, CCL2, IL1RN, PGF, SPP1, VEGFA, AREG and DPT mRNA. Description: qPCR of genes in monolayer fibroblasts, 24 hours (Test Example 3-3). Type of data set: cell-based, human. As to conditions: 100 mg/mL trehalose (Treha 100). On the procedure: In the same manner as in Test Example 3-2, NHDF was cultured in 1% FCS and 1% ABAM-containing DMEM medium containing 0, 30, or 100 mg/mL trehalose or hyaluronic acid oligosaccharide 4mer (HA4) (product code 11006, manufactured by Cosmo Bio Co., Ltd.) for 24 hours, and RNA was recovered from the cells. Also, as a control, RNA was recovered from fibroblasts before treatment (0 h in FIG. 9). The obtained sample was subjected to the same operation as in Test Example 3-2, and qPCR for genes EREG, ARG2, CCL2, IL1RN, PGF, SPP1, VEGFA, AREG and DPT was performed. GAPDH was used as a reference gene.
For orientation: In qPCR the cycle at which signal appears reflects the starting amount.

The test system of data set [7] is EREG, ARG2, CCL2, IL1RN, PGF, SPP1, VEGFA, DPT and FGF2 mRNA. Description: qPCR of genes in fibroblasts in collagen gel, 3 days (Test Example 3-4). The class given is cell-based, human. Particulars: 100 mg/mL trehalose (Treha 100). On the procedure:
A collagen gel containing NHDF was prepared according to the method (1) of Test Example 1. The obtained collagen gel was cultured in DMEM medium containing 0 or 100 mg/mL trehalose, 1% FCS and 1% ABAM for 3 days, and RNA was recovered from the cells. The obtained sample was subjected to the same operation as in Test Example 3-2, and qPCR for genes EREG, ARG2, CCL2, IL1RN, PGF, SPP1, VEGFA, DPT and FGF2 was performed. GAPDH was used as a reference gene.

Data set [8] concerns wound with a diameter of 6 mm on the back of C57BL/6 mice. Description: In vivo test of effect of trehalose on skin wound (Test Example 6). Details: species or system mouse. On the procedure: In order to verify an effect of trehalose on skin wounds, in vivo test using mice was performed. The method is shown below. • (1) 15 week old C57BL/6 mice were anesthetized, the back was extensively depilated, then the skin of the back was pinched and overlaid, and a wound with a diameter of 6 mm was prepared with a biopsy trepan. • (2) Wound mice were divided into 2 groups of 6 mice each, and 100 mg of an agent composed only of Vanicream (Pharmaceutical Specialties, INC) as a base was applied to a control group, and 100 mg of an agent composed of 10% by mass trehalose and Vanicream as a base was applied to a trehalose treatment group once a day. • (3) Images of each wound up to 9 days after wound formation and the area of each wound were recorded, respectively.

Setting [9] is: Trehalose concentration 100 mg/mL, n = 2, averages.

Each structure is given as a SMILES string.

In the case of `OC[C@H]1O[C@H](O[C@H]2O[C@H](CO)[C@@H](O)[C@H](O)[C@H]2O)[C@H](O)[C@@H](O)[C@@H]1O` [trehalose, α, α-trehalose], in data set [1] (100 mg/mL vs 0 mg/mL trehalose), the “proportions of fibroblasts in S phase and G2 phase” value is on record as “significantly increased”. In addition, in data set [1] (setting [9]), the “Proportion of cells in cell cycle, G1” value is 62.5%; the “Proportion of cells in cell cycle, G2” value is reported as 14.0%; the “Proportion of cells in cell cycle, S” value is listed as 15.3%. Moreover, the “formation of epithelial tissue layer” value in data set [2] is listed as “not observed”. In addition, the “increase in the number of cells” value in data set [3] (10 mg/mL trehalose) is reported as “slightly suppressed”. In [3] (100 mg/mL trehalose), the “appearance of damage to cells” value is reported as “no appearance of any damage”, the cell morphology entry is listed as “the number of spindle-shaped cells was large” and the “increase in the number of cells” value is “further suppressed”. Besides, the “phosphorylation of ERK1/2” value in [4] is reported as “promoted as the concentration of trehalose in the medium increases”. For the same compound, the “phosphorylation of AKT” value in data set [5] is recorded as “promoted as the concentration of trehalose in the medium increases”. In the data set with β-actin, the “synthesis amount of β-actin” value is on record as “increased depending on the amount of trehalose”. For the same compound, the “mRNA expression levels of genes EREG, ARG2, CCL2, IL1RN, PGF, SPP1, VEGFA, AREG and DPT compared to vehicle” value in [6] is given as “remarkably increased”. In data set [7], the “mRNA expression levels of genes EREG, ARG2, CCL2, ILIRN, PGF, SPP1, VEGFA, DPT and FGF2 compared to vehicle” value was “significantly increased”. For the same compound, in data set [8] (100 mg of agent of 10% by mass trehalose and Vanicream, applied once a day), the “recovery of wounds compared to control group” value was “significantly faster”. Further, the “day on which wound epithelialized” value in data set [8] (10% by mass trehalose in Vanicream, once a day) was 4 days. The wound area entry in data set [8] (10% by mass trehalose in Vanicream, once a day, after 1 day) is “remarkably reduced”. In addition, the “difference between groups in wound area (two-way ANOVA, p<0.001)” value in data set [8] (each point of days 2 to 6, n=6 in each group) is listed as “significant differences”.
